For this assay, the target named is T1, Polyunsaturated fatty acid 5-lipoxygenase (Homo sapiens, UniProt P09917).
T1 sequence (P09917 whole entry): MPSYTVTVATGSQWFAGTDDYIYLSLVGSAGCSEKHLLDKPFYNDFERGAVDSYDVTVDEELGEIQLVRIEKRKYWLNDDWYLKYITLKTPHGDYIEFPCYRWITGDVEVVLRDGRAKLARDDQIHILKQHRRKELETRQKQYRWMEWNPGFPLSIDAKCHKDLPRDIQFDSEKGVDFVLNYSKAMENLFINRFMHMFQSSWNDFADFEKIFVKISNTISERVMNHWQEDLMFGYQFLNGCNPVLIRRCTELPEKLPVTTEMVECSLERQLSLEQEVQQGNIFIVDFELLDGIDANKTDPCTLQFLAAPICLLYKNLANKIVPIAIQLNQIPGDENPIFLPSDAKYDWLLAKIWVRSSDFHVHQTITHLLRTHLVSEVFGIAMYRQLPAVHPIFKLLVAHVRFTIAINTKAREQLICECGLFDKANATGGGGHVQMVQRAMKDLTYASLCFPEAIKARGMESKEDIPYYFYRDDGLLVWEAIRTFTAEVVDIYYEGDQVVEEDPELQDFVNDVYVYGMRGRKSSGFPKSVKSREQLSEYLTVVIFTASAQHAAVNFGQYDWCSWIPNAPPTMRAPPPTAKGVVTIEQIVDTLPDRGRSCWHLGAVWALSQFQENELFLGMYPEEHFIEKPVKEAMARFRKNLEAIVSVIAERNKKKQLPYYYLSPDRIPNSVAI
Briefly: Cell-Free Assay. The method, then: The enzyme activity of 5-LOX was determined fluorescence spectrophotometrically by oxidation of the substrate H2DCFDA to the highly fluorescent 2',7'-dichlorofluorescein product during 5-LOX s catalytic reaction . The reactions were initiated by the addition of AA as substrate and then monitored by excitation at 500 nm and emission at 520 nm utilizing a multiwall fluorometer. Fluorescence signals were recorded for 5 min with a kinetics mode program. Inhibition activities were measured as described previously.

By IC50 is commonly meant the concentration that gives 50% inhibition. The low end stands for higher potency, the high end for lower potency. In the case of `O=C(c1[nH]nc2c1CSc1sc(Br)cc1-2)N1CCN(Cc2ccccc2)CC1` [5-(4-benzylpiperazine-1-carbonyl)-11-bromo-8,10-dithia-3,4-diazatricyclo[7.3.0.0 ,⁶]dodeca-1(9),2,5,11-tetraene (7i)], it took 21 µM to reach half-maximal inhibition (IC50).

For the compound `O=C(c1[nH]nc2c1CSc1sc(Br)cc1-2)N1CCN(c2ccccc2F)CC1` [11-bromo-5-[4-(2-fluorophenyl)piperazine-1-carbonyl]-8,10-dithia-3,4-diazatricyclo[7.3.0.0,6]dodeca-1(9),2,5,11-tetraene (7c)], the 50% inhibitory concentration (IC50) was 5.7 µM. Compared with the last compound, the IC50 is about 3.7-fold lower.

`O=C(c1[nH]nc2c1CSc1sc(Br)cc1-2)N1CCN(c2ccc(OC(F)(F)F)cc2)CC1` [11-bromo-5-{4-[4-(trifluoromethoxy)phenyl]piperazine-1-carbonyl}-8,10-dithia-3,4-diazatricyclo[7.3.0.0 ,⁶]dodeca-1(9),2,5,11-tetraene (7e)]: the IC50 was determined as 86 µM.

These data come from BindingDB's records for doi:10.1111/cbdd.12356 (Peking University, 2014).
